Several values for one entry are separate records, joined by “and”; a condition that tells them apart may be missing. Equal values may be shown once. Non-standard residues stand in square brackets, D forms with d. Residues, ends and D or L forms follow the SMILES beside them. ξ: configuration not given here. *: point of attachment. X1 = NCCCC[C@H](N)C(=O)NCCCC[C@H](NC(=O)[C@@H](N)CCCCN)C(=O)*; ξGly(dodecyl) = CCCCCCCCCCCCC(N)C(=O)O

The nature of data set [1]: In vivo distribution of 3H-dendrimer (liquid scintillation counting). Set-up: species or system C57BL/6 mice. As to the method:
Tritiated dendrimer synthesised as described in Example 1 above except 3H labelled BOC-lysine was prepared quantitatively from 3H-lysine purchased commercially based on the method of Keller et al Organ. Synth. 63, 160–170 (1985) (1a: Specific Activity 31Bq/ug @ 5 μg/μl in dH20) were made up to 1.2 μg/μl with 0.9% w/v sodium chloride BP. For each animal, complexes were formed at room temperature by adding 5 μg pCEP4hFIXint (as used in Example 11) in 100 μl 0.9% sodium chloride BP) dropwise to 100 μl dendrimer solution (dendrimer:DNA charge ratio about 4:1) with moderate vortexing. The complexes were then sonicated on ice with a hand-held probe at low power setting several times with three second pulses.
Male C57BL/6mice (8–10 weeks) were divided into two groups. The first group (n=8) were given approx. 150–200 μl of the complexes (exact dose determined by difference in weight of syringe pre/post injection) via tail vein injection. The second (n=4) were administered 150 μl of the complexes in a dosed food particle (isolation/observation confirmed ingestion of the food particle). At time-points 2 hours, 24 hours, 4 days, 7 days (group 1) and 24 hours, and 7 days (group 2) the mice were sacrificed and organs/fluids harvested. Blood and urine were collected when possible post mortem, the former in citrate tubes. Organs were weighed and immediately immersed in liquid nitrogen cooled isopentane to be kept at −80° C.
Organ samples for liquid scintillation counting (for detecting dendrimer) were processed as per “Packard Counting Solutions” protocol for samples <30 mg using Solvable (Packard) for all tissues except blood, urine and digestive tract tissues that were dissolved using Soluene-350 (Packard). The LSC cocktail used was Ultima Gold. Counting time was 10 minutes. Detection of episomal DNA was performed by PCR using primers that amplified a 460 bp section of the plasmid of the 3′ end of hFIX cDNA and the SV40 pA region

The subject of data set [2] is Human Embryonic Kidney (HEK) 293 cells. In words: Transient transfection of HEK 293 cells with GABAA receptor α1 subunit cDNA. Particulars: […] compound 1a. The class given is cell-based. As to the method: Human Embryonic Kidney (HEK) 293 cells were sub-cultured onto poly-L-lysine coated 35 mm petri dishes such that 24 h later the cells were still sub-confluent. Culture media was replaced on the morning of the transfection procedure. Cells were returned to the CO2—incubator ([…]/95% air) for 3 h.
Compound 1a was incubated with a GABAA receptor αl subunit cDNA-pCDM8 (Mammalian cell expression vector Thompson C. L. et al Neuroscience Let. 144 53–56 (1992)) construct (Fc2 μg/ml) in DMEM at weight ratios of 1:1, 10:1 and 100:1 (1a:α1 cDNA) for 30 minutes prior to transfection.
Cells were washed 3× with serum-free DMEM prior to application of compound 1a/GABAA receptor α subunit cDNA-vector (1ml/dish). Dishes were returned to the incubator (37° C.) for 5 h. Media was then supplemented with DMEM/10% FCS (1 ml/dish), returned to the incubator for 24 h. […]
24 h later the cells were washed 3× with phosphate-buffered saline and then fixed with methanol (−20° C., 25 min, 2 dishes from each regime) or 4% parafarmaldehyde (room temp., 15 min, 2 dishes from each regime). The cells were then processed for GABAA receptor α1 subunit-like immunoreactivity according to Thompson et al. Immunoreactivity was detected by diaminobenzidine staining and visualised under the light microscope.

The next data set relates to Rat red blood cells. In words: RBC lysis, compound alone or complexed with pSVβgal. Conditions: pSVβgal 0.0125 μg/μl, 1 hour at 37° C.

Experimental for Rat red blood cells: Rat red blood cells were obtained by centrifugation of complete blood. A 2% suspension of cells was made in phosphate buffered saline. […] The lysate supernatant was recovered by centrifugation and the absorbance measured at 540 nm. (Concentration of pSVβgal was 0.0125 μg/μl).

With `CCCCCCCCCCCCC(NC(=O)C(CCCCCCCCCCCC)NC(=O)C(CCCCCCCCCCCC)NC(=O)[C@H](CCCCNC(=O)[C@H](CCCCNC(=O)[C@@H](N)CCCCN)NC(=O)[C@@H](N)CCCCN)NC(=O)[C@H](CCCCNC(=O)[C@@H](N)CCCCN)NC(=O)[C@@H](N)CCCCN)C(N)=O` (some centres unmarked) [Compound 1a] (H-KK(Lys)K(X1)[ξGly(dodecyl)][ξGly(dodecyl)][ξGly(dodecyl)]-NH2), in data set [1] (Oral, 24 hours), the “% age Total Dose, Heart” value is given as 0.53%; the “% age Total Dose, Kidney” value is 0.52% and 0.29%; the “% age Total Dose, Liver” value was 3.70% and 1.84%; the “% age Total Dose, Lungs” value is 0.78%. In data set [1] (Oral, 24 hours), the “% age Total Dose, Spleen” value was 0.16% and 0.13%; the “% age Total Dose, Urine” value was 0.48% and 0.75%. In addition, in data set [1] (i.v., 2 hours), the “% age Total Dose, Heart” value was 0.22% and 0.06%; the “% age Total Dose, Kidney” value was 0.34% and 0.48%; the “% age Total Dose, Liver” value was 10.35% and 2.07%; the “% age Total Dose, Lungs” value was 0.47% and 0.13%. Further, in data set [1] (i.v., 2 hours), the “% age Total Dose, Spleen” value was 1.00% and 0.30%; the “Activity, Urine” value was “(21 Bq/0.1 ml)”. Moreover, in data set [1] (i.v., 24 hours), the “% age Total Dose, Heart” value is 0.80% and 4.89%; the “% age Total Dose, Kidney” value was 0.57% and 1.63%; the “% age Total Dose, Liver” value was 8.05% and 0.71%; the “% age Total Dose, Spleen” value is 0.61% and 0.07%. For the same compound, the “% age Total Dose, Urine” value in data set [1] (i.v., 24 hours) came out at 0.52%. Further, in data set [1] (i.v., 4 days), the “% age Total Dose, Heart” value was 1.48%; the “% age Total Dose, Lungs” value turned out to be 0.95%; the “% age Total Dose, Muscle” value amounted to 0.03%; the “% age Total Dose, Spleen” value turned out to be 0.18%. For the same compound, the “% age Total Dose, Urine” value in data set [1] (i.v., 4 days) worked out at 1.3%. Besides, in data set [1] (i.v., 7 days), the “% age Total Dose, Heart” value came out at 1.53%; the “% age Total Dose, Kidney” value is 0.89% and 5.68%; the “% age Total Dose, Liver” value is 2.91% and 6.53%; the “% age Total Dose, Lungs” value was 0.16%. Further, the “% age Total Dose, Spleen” value in data set [1] (i.v., 7 days) was 0.53% and 0.51%. For the same compound, the cell viability result in data set [2] was “deleterious to cell viability”.

As for `CCCCCCCCCCCCC(NC(=O)C(CCCCCCCCCCCC)NC(=O)C(CCCCCCCCCCCC)NC(=O)[C@H](CCCCNC(=O)[C@H](CCCCNC(=O)[C@H](CCCCNC(=O)[C@@H](N)CCCCN)NC(=O)[C@@H](N)CCCCN)NC(=O)[C@H](CCCCNC(=O)[C@@H](N)CCCCN)NC(=O)[C@@H](N)CCCCN)NC(=O)[C@H](CCCCNC(=O)[C@H](CCCCNC(=O)[C@@H](N)CCCCN)NC(=O)[C@@H](N)CCCCN)NC(=O)[C@H](CCCCNC(=O)[C@@H](N)CCCCN)NC(=O)[C@@H](N)CCCCN)C(N)=O` (some centres unmarked) [Compound 1b], the “effect of complexing to DNA on erythrocyte lysis” value in the data set on Rat red blood cells is listed as “reduces levels of erythrocyte lysis”.

The values are drawn from patent publication US7081495B1, “Cationic compounds and their use as macro molecular carriers” (School of Pharmacy, University of London, priority 1998, dated 2006).
